Measured values from patent US11203757B2, “Use of Rad18 inhibitors in the treatment of tumors” (Centre National De La Recherche Scientifique, priority 2014, dated 2021).

Experiments:
Type in all cases: cell-based
[1] = tested on: U87-MG glioblastoma cells; test: CellTiter-Glo cell viability of U87-MG cells treated with P2207; conditions: indicated doses of P2207, 48 h post-treatment, FIG. 7
Method: FIG. 7. […] Survival curves of U87-MG glioblastoma cells treated with the indicated doses of the USP7 inhibitor P2207 (Sigma-Aldrich), or DMSO as a control. Means and standard deviations are shown (n=3). Cell viability is expressed as percent (%) of viability compared to the control (DMSO).
Cells were plated at 1.0×10^4 cells/well in 12-well plates and exposed to the indicated amount of P2207 inhibitor (Sigma) or DMSO as control. 48 h post-treatment, cell viability was determined using the CellTiter-Glo luminescent cell viability assay (Promega).

[2] = tested on: Gb4 glioblastoma cancer stem cells; test: Proliferation of gliospheres after Rad18 siRNA treatment; conditions: 72 hours post-treatment, absence of external damage, versus control siRNA (siLuc)
Method: FIG. 6. Rad18 downregulation affects the proliferation of glioblastoma cancer stem cells in the absence of external damage. (A) Western blot of Gb4 glioblastoma cancer stem cells extracts treated with control siRNA (siLuc, lane 1), or a Rad18-specific siRNA (siRad18, lane 2) analysed 72 hours post-treatment. Extracts were probed with anti-Rad18 or anti-PCNA antibodies. (B) Phase contrast microscopy images of gliospheres treated with control siRNA or Rad18-specific siRNA 72 hours post-treatment. (C) Quantification of gliospheres proliferation upon downregulation of Rad18 expression expressed as number of cells. Glioblastoma cancer stem cells extracts were treated as described in panel A and cells were counted before (0 h) or 72 hours post-treatment (72 h).
Glioblastoma cancer stem cells (Gliospheres, Gb4 and Gb7 cell lines) were isolated from patients as described in Clarion et al, 2014.
Cells were maintained in DMEM-F12 (Lonza, Levallois-Perret, France) supplemented with B27 and N2 (Invitrogen, LifeTechnologies, Saint Aubin, France), 25 ng/ml of FGF-2 and EGF (Peprotech, Neuilly sur Seine, France) at 37° C. in 5% CO2 humidified incubators.
Gb4 glioblastoma cancer stem cells extracts, treated with control siRNA or a Rad18-specific siRNA (SEQ ID NO:3) were analysed 72 hours post-treatment. […]

[3] = tested on: U87 glioblastoma cell line; test: Cell viability of U87 cells transfected with Rad18 siRNA and challenged with cisplatin; conditions: U87 cells co-transfected with siRNA and empty vector, increasing cisplatin, CellTiter-Glo; rescued by re-expression of Rad18
Excerpt: (E) Survival curves of U87 glioblastoma cells co-transfected with empty vector and non-specific siRNA (siLuc+EV), or Rad18-specific siRNA and empty vector (siRad18+EV) and rescued by co-transfection with Rad18 (siRad18+Rad18), challenged with the indicated doses of cisplatin (CisPt) normalized to non-treated cells (mock). Means and standard deviations are shown (n=3).
U87 cells were co-transfected either with siRNA Rad18 (GAG GAU UCU UCU AGC UGU A; SEQ ID NO:3) or siRNA Luciferase (Luc) as a control and an empty vector (pcDNA3) or Rad18 expressing vector using JETPrime reagent (Polyplus). Twenty-four hours after transfection, cells were trypsinized and seeded in 12 wells plates at a density of 10 000 cells/well. Twenty-four hours later cells were treated with increasing concentration of cisplatin (Sigma).
Cells were plated at 1×10^4 per well in twelve-well plates and UV-irradiated or exposed to the indicated amount of cisplatin (CisPt, Sigma). 48 hours after irradiation, cell viability was determined using the CellTiter-Glo® Luminescent Cell Viability assay (Promega).

Compound | sensitization of glioblastoma to cisplatin treatment (cell viability, % of DMSO control) [1] | proliferation of gliospheres (number of cells) [2] | sensitivity to cisplatin (cell viability) [3]
CC(=O)c1cc([N+](=O)[O-])c(Sc2ccc(F)cc2F)s1 [P2207] | sensitizes glioblastoma to cisplatin treatment |  | 
GAG GAU UCU UCU AGC UGU A (GAGGAUUCUUCUAGCUGUA; listed as RNA, chemistry not given here) [Rad18-specific siRNA] |  | affect the proliferation of gliospheres | strong sensitivity to cisplatin
